Source: patent publication US20230016424A1, “HYBRID AMIDE DERIVATIVES OF AMPHOTERICIN B” (The Board of Trustees of the University of Illinois, priority 2019, published 2023)
In brackets after ≈: the same amount, converted by molar mass.

Assays:
C. glabrata = test: MIC; assay type: cell-based
C. tropicalis = test: MIC; assay type: cell-based
Apophysomyces sp. = test: MIC against moulds; assay type: cell-based; settings: 3 isolates
C. krusei = test: MIC; assay type: cell-based
CYP1A2 = target: T1, CYP1A2 (Homo sapiens, UniProt P05177); test: CYP Inhibition; assay type: in vitro ADME; settings: human liver microsome; for P450 1A2 % Inhibition: 10 um
T1 construct: from tissue; host or cells: human liver microsomes
T1 sequence (P05177 1-516): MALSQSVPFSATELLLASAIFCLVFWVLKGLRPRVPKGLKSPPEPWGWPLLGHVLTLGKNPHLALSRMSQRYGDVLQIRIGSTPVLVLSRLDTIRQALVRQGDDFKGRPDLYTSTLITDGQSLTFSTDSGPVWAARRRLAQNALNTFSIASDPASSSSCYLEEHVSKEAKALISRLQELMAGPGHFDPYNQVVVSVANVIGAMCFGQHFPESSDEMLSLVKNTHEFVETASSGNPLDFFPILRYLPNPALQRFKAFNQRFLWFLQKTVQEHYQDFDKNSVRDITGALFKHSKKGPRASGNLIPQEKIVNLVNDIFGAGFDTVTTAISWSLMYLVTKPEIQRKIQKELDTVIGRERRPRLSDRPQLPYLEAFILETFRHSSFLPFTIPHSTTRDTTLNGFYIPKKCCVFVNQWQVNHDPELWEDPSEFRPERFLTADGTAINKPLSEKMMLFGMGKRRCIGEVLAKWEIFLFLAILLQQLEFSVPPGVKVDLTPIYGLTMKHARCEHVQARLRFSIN
Experimental: The working solutions of the test compounds and the standard inhibitors were prepared in DMSO (100× final concentration). 20 ul of substrate solution (5 in 1 cocktail) was added to the wells followed by 2 ul test compound solution was added. 158 ul of human liver microsome (HLM) was added to all the wells of the incubated plate and warmed to 37° C. for 10 mins. 20 ul of NADPH cofactor solution was then added to all the wells of incubated plate and incubated at 37° C. for 10 mins. At the time point the reaction was quenched by adding 400 uL of cold stop solution. The samples were centrifuged at 4000 rpm for 20 mins to precipitate protein. 100 ul supernatant was diluted with 100 ul of ultra pure water and analyzed using LCMS.

A. fumigatus 1163 = test: MIC; assay type: cell-based
[1] = Liver Microsome stability (In Vitro Metabolism); assay type: in vitro ADME; settings: for Remaining (T = NCF60 min): no cofactor 60 min
Experimental: Working Compound solution: 10 uM in 50 mM potassium phosphate buffer with 9% MeOH and 1% DMSO
Microsome solution: working concentration 0.625 mg/ml
Stopping solution: Cold ACN with 200 ng/ml Tolbutamide and 200 ng/ml Labetalol (4° C.)
Procedure: In the well plates (T5, T10, T20, T30, T60, NCF60 (no cofactor 60)) 10 uL of the compound/control working solution was added (except T0 and matric blank) followed by microsome solution (80 uL) and the mixture was incubated at 37 C for about 10 mins. A solution of potassium phosphate (10 ul of 50 mM) was added to NCF60 well, incubated at 37 C and time counting started. After prewarming 10 ul of NADPH regenerating solution was added to each plate to start the reaction. At different time point 300 uL/well of stopping solution to terminate the reaction. The sampling plates were shaken for 10 mins and the centrifuged for 20 mins at 4000 rpm. The supernatant was half diluted with ultra pure water and the analyzed using LCMS.

[2] = In vivo mouse pharmacokinetics, IV; design: species or system CD-1 mice
Experimental: The experiment was performed using the compounds synthesized in lab and purified by preparative HPLC (>91%). All the compounds were dissolved in D5W (5% dextrose in water) at for IV injection. Female CD-1 mice were (3 per group; body weight approx. 30 g each) injected with the compounds (as per planned dosage) and the blood samples were collected at different time points and the compound content was analysed using the following procedure.
An aliquot of […], IS solution (100 ng/mL Labetalol & 100 ng/mL Tolbutamide in ACN), the mixture was vortex-mixed well and centrifuged at 3900 rpm for 10 min, 4[…]. An aliquot of 90 μL supernatant was transferred to sample plate and mixed with 60 μL water, then the plate was shaken at 800 rpm for 10 min. 15.0 μL supernatant was injected for LC-MS/MS analysis.

C. albicans SN250 = test: MIC; assay type: cell-based, Candida albicans
CD-1 mice = assay type: in vivo; settings: for Mouse single IV injection: mortality: 40 mpk
Experimental: Procedure: The experiment was performed using the commercial Fungizone and Ambisome. Compound BA was directly used after purification without any special treatment. […] . Female CD-1 mice were (3 per group; body weight 30 g each) injected with the drugs/compounds and monitored for 24 h for death or distress signs.
Compound BA was directly used after purification without any special treatment. […] . Female CD-1 mice were (3 per group; body weight 30 g each) injected with the drugs/compounds and monitored for 24 h for death or distress signs.

KIM1, LCN2, TIMP1, SPP1 = test: Biomarkers of renal injury by RTPCR after IV injection; design: species or system mice; settings: mouse, in vivo

For CC1C=CC=CC=CC=CC=CC=CC=CC(OC2OC(C)C(O)C(N)C2O)CC2OC(O)(CC(O)CC(O)C(O)CCC(O)CC(O)CC(=O)OC(C)C(C)C1O)CC(O)C2C(=O)NCCF (stereo not drawn) [Compound BM], which “MIC C. glabrata” value (C. glabrata) is on record?
The value was 250 µM (≈ 242 µg/mL).

What about the “MIC C. tropicalis” value (C. tropicalis) of the same compound?
The value was 500 µM (≈ 485 µg/mL).

And the MIC (Apophysomyces sp.)?
The MIC was 8.3 µM (≈ 8.04 µg/mL).

What about the “MIC C. krusei” value (C. krusei) of the same compound?
Its value is 1000 µM (≈ 969 µg/mL).

What about the “P450 1A2 % Inhibition” value (CYP1A2) of the same compound?
The value was 7.8%.

And the “MIC A. fumigatus 1163” value (A. fumigatus 1163)?
The value was 1000 µM (≈ 969 µg/mL).

Which results are given for CC1C=CC=CC=CC=CC=CC=CC=CC(OC2OC(C)C(O)C(N)C2O)CC2OC(O)(CC(O)CC(O)C(O)CCC(O)CC(O)CC(=O)OC(C)C(C)C1O)CC(O)C2C(=O)NCCO (stereo not drawn) [Compound BA]?
MIC (Apophysomyces sp.): 16 µM (≈ 15.5 µg/mL); CL ([1]; Dog liver microsomes): <9.6 µL/min/mg; Remaining (T = 60 min) ([1]; Dog liver microsomes): 111%; T1/2 ([1]; Dog liver microsomes): >2.42 h; CL ([1]; Human liver microsomes): <9.6 µL/min/mg; Remaining (T = 60 min) ([1]; Human liver microsomes): 99.9%; T1/2 ([1]; Human liver microsomes): >2.42 h; CL ([1]; Monkey liver microsomes): <9.6 µL/min/mg; Remaining (T = 60 min) ([1]; Monkey liver microsomes): 108%; T1/2 ([1]; Monkey liver microsomes): >2.42 h; CL ([1]; Mouse liver microsomes): <9.6 µL/min/mg; Remaining (T = 60 min) ([1]; Mouse liver microsomes): 97.7%; T1/2 ([1]; Mouse liver microsomes): >2.42 h; CL ([1]; Rat liver microsomes): <9.6 µL/min/mg; Remaining (T = 60 min) ([1]; Rat liver microsomes): 115%; T1/2 ([1]; Rat liver microsomes): >2.42 h; In vivo PK AUC0-inf ([2]; 1 mg/kg IV): 7488] ng*hr/mL; In vivo PK Cl ([2]; 1 mg/kg IV): 2.24 mL/min/kg; In vivo PK T1/2 ([2]; 1 mg/kg IV): 6.87 h; In vivo PK AUC0-inf ([2]; 5 mg/kg IV): 26694 ng·h/mL; In vivo PK Cl ([2]; 5 mg/kg IV): 3.13 mL/min/kg; In vivo PK T1/2 ([2]; 5 mg/kg IV): 8.00 h; MIC C. albicans SN250 (C. albicans SN250): 0.25 µM (≈ 0.242 µg/mL); P450 1A2 % Inhibition (CYP1A2): 0.0%; Number of Mice Alive (CD-1 mice; 40 mg/kg IV, 24 h): 3/3; Number of Mice Distress-Fee (CD-1 mice; 40 mg/kg IV, 24 h): 3/3; Mouse single IV injection: mortality (CD-1 mice): 0/4; Tolerability in mice (CD-1 mice; IV in D5W): Well-Tolerated

For C[C@@H]1[C@H](O)[C@@H](C)/C=C/C=C/C=C/C=C/C=C/C=C/C=C/[C@H](OC2O[C@H](C)[C@@H](O)[C@H](N)[C@@H]2O)C[C@@H]2O[C@](O)(C[C@@H](O)C[C@@H](O)[C@H](O)CC[C@@H](O)C[C@@H](O)CC(=O)O[C@H]1C)C[C@H](O)[C@H]2C(=O)O (stereo partly drawn) [AmB, Amphotericin B], which MIC (Apophysomyces sp.) is on record?
The MIC was 0.75 µM (≈ 0.693 µg/mL).

What about the CLint scaled at 1 µM ([1]; Dog liver microsomes) of the same compound?
The CLint scaled at 1 µM was less than 14 mL/min/kg.

And the “Remaining (T = 60 min)” value ([1]; Dog liver microsomes)?
The value was 106%.

What about the half-life at 1 µM ([1]; Dog liver microsomes) of the same compound?
Its half-life at 1 µM is greater than 2.42 h.

And the microsomal CLint at 1 µM ([1]; Dog liver microsomes)?
The microsomal CLint at 1 µM was less than 9.6 µL/min/mg.

And the “Remaining (T = NCF60 min)” value ([1]; Dog liver microsomes)?
Its value is 94.7%.

And the CLint scaled at 1 µM ([1]; Human liver microsomes)?
The CLint scaled at 1 µM was less than 8.6 mL/min/kg.

And the “Remaining (T = 60 min)” value ([1]; Human liver microsomes)?
Its value is 100%.

What about the half-life at 1 µM ([1]; Human liver microsomes) of the same compound?
The half-life at 1 µM was greater than 2.42 h.

And the microsomal CLint at 1 µM ([1]; Human liver microsomes)?
Its microsomal CLint at 1 µM is less than 9.6 µL/min/mg.

And the “Remaining (T = NCF60 min)” value ([1]; Human liver microsomes)?
The value was 104%.

What about the CLint scaled at 1 µM ([1]; Monkey liver microsomes) of the same compound?
The CLint scaled at 1 µM was less than 13 mL/min/kg.

What about the “Remaining (T = 60 min)” value ([1]; Monkey liver microsomes) of the same compound?
Its value is 142%.

And the half-life at 1 µM ([1]; Monkey liver microsomes)?
The half-life at 1 µM was greater than 2.42 h.

What about the microsomal CLint at 1 µM ([1]; Monkey liver microsomes) of the same compound?
Its microsomal CLint at 1 µM is less than 9.6 µL/min/mg.

What about the “Remaining (T = NCF60 min)” value ([1]; Monkey liver microsomes) of the same compound?
Its value is 105%.

And the CLint scaled at 1 µM ([1]; Mouse liver microsomes)?
Its CLint scaled at 1 µM is less than 38 mL/min/kg.

And the “Remaining (T = 60 min)” value ([1]; Mouse liver microsomes)?
The value was 106%.

What about the half-life at 1 µM ([1]; Mouse liver microsomes) of the same compound?
Its half-life at 1 µM is greater than 2.42 h.

What about the microsomal CLint at 1 µM ([1]; Mouse liver microsomes) of the same compound?
The microsomal CLint at 1 µM was less than 9.6 µL/min/mg.

And the “Remaining (T = NCF60 min)” value ([1]; Mouse liver microsomes)?
Its value is 93.1%.

And the CLint scaled at 1 µM ([1]; Rat liver microsomes)?
The CLint scaled at 1 µM was less than 17 mL/min/kg.

And the “Remaining (T = 60 min)” value ([1]; Rat liver microsomes)?
Its value is 121%.

What about the half-life at 1 µM ([1]; Rat liver microsomes) of the same compound?
The half-life at 1 µM was greater than 2.42 h.

And the microsomal CLint at 1 µM ([1]; Rat liver microsomes)?
Its microsomal CLint at 1 µM is less than 9.6 µL/min/mg.

What about the “Remaining (T = NCF60 min)” value ([1]; Rat liver microsomes) of the same compound?
The value was 111%.

And the inhibition at 10 min, 10 µM (CYP1A2; human liver microsomes, probe 5 in 1 substrate cocktail, read-out: P450 1A2 % Inhibition)?
Its inhibition at 10 min, 10 µM is 23.1%.

And the “Renal toxicity biomarkers KIM1, LCN2, TIMP1, SPP1” value (KIM1, LCN2, TIMP1, SPP1)?
The value was “elevated”.

What about the “Mouse single IV injection: mortality” value (CD-1 mice) of the same compound?
The value was 0/3.
